Experimental data reported in patent publication US8536196B2, “Substituted 1,3-dioxanes useful as PPAR modulators” (Evolva SA, priority 2007, dated 2013).

What was measured:
[1] = tested on: mice (FeCl3 induced femoral artery thrombosis); assay: FeCl3 arterial thrombosis mouse model (occlusion time, blood flow); assay type: in vivo
Method: The solutions were diluted 3.3-fold in saline and 100 μl/25 g was injected.
During the experiments, a soluble potassium salt of the drug was provided, diluted in saline. Of this formulation, 100 μl/25 g was injected i.v. in the tail vein (dose of 100 mg/kg).
Aspirin is given the same way at a dose of 200 mg/kg. Clopidogrel is administered by oral gavage at a dose of 20 mg/kg at 6-7 hours prior to the experiment. The solutions were coded (except for clopidogrel) and the operator was blinded to the code. The animals assigned to each group were matched for body weight. All mice used were 8-10 weeks old males and were in a 100% Swiss genetic background.
(§1) The flow in each image is expressed as a percentage of that at the contralateral side, and data are averaged for all 120 images to determine total flow. The same analysis is performed for 10 min intervals (which gives essentially the same information as the area under the curve). […] Flow before treatment is recorded as 100%, and that in occluded arteries as 0%. At the end of the experiment, blood is collected on 0.01M citrate by heart puncture for determination of blood cell counts. Plasma is prepared by centrifugation and stored at −20° C. for determination of drug levels.
Statistical analysis for differences between two groups is performed by non-parametric Student t-test. Occlusion times >30 min were considered equal to 30 min for statistical analysis. It should be noted that this approach may result in a statistical bias, the more so because the number of experiments is not the same in the different groups. Significance is set at p<0.05.

[2] = Blood cell analysis at end of thrombosis experiment; assay type: in vivo, mouse
Method: as §1
Table VI summarizes the results of blood cell analysis performed on a sample taken at the end of the observation period. (Z)-6-((2S,4S,5R)-2-(2-chlorophenyl)-4-(2-hydroxyphenyl)-1,3-dioxan-5-yl)hex-4-enoic is referred to in Table VI as EV.

MEFs / 3T3-L1 = assay: Adipocyte differentiation induction assay (Oil Red O staining); assay type: cell-based, mouse; parameters: key to Adip. (adipocyte differentiation): 0: similar results to DPD; −1: even less adipocyte differentiation; +1: more adipocyte differentiation (both relative to DPD); settings: for Adip. (adipocyte differentiation): relative to DPD (SN1)
Method: This example describes an assay for determining adipocyte differention. Compounds are tested to see whether they induce adipocyte differentiation and also to see whether they inhibit adipocyte differention.
MEFs were grown in AmnioMax basal medium (Gibco) supplemented with 7.5% Amniomax supplement C-100 (Gibco), 7.5% Fetal Bovine Serum (FBS), 2 mM Glutamine, 62.5 μg/ml penicillin and 100 μg/ml Streptomycin (growth medium). At confluence, MEFs were induced to differentiation in growth medium with the addition of 1 μM dexamethasone (Sigma) 0.5 mM isobutylmethylxanthine (Sigma), 5 μg/ml insulin (Sigma) and 10 μM test compound dissolved in DMSO or DMSO alone. Medium was subsequently renewed every 48 hrs with growth media supplemented with 5 μg/ml Insulin and ligand or DMSO.
Briefly, to test compounds as inducers of adipocyte differentiation, 3T3-L1 are grown to confluence in DMEM with 10% Calf serum (CS), typically in 24 well dishes. At 2 days post confluence (day 0), cells are induced to differentiate with DMEM supplemented with 10% fetal bovine serum (FBS), 1 μM dexamethasone and the test compound (01, 1 and 10 μM). BRL49653 (1.0 μM dissolved in 100% DMSO) is used as a positive control. After 48 h, the cells are re-fed with DMEM containing 10% FBS supplemented with the test compound or the positive control. From day 4, cells are grown in DMEM with 10% FBS and are changed every second day until day 8. At day 8, cells are stained with Oil Red O as described below.
Cells cultured as described above are used for Oil Red staining. Dishes are washed in PBS and cells were fixed in 3.7% paraformaldehyde for 1 h and stained with oil red O as described in (Hansen et al 1999). Oil red O solution stock solution is prepared by dissolving 0.5 g of Oil Red O (Sigma) in 100 mL of isopropanol. Oil re 0 working solution is prepared by diluting a stock solution with water (6:4) followed by filtration.
Table II summarizes results obtained with different analogs of DPD (SN1), “0” representing similar results to DPD, “−1” representing even less adipocyte differentiation, “+1” representing more adipocyte differentiation (both relative to DPD) and “−” meaning not assayed.

Gal4-PPARgammaLBD = biological target: T1, Gal4-PPARgammaLBD (Homo sapiens, UniProt P37231); assay: PPARgamma transactivation assay (Gal4-PPARgammaLBD, UASx4-TK-luc reporter); assay type: cell-based; settings: for PPAR (PPARgamma activating activity): level of activity relative to 10 μM DPD (SN1)
T1 construct: expressed in transfected cells; host or cells: mouse embryonic fibroblasts (MEFs) or ME3 cells
T1 sequence (P37231 204-505): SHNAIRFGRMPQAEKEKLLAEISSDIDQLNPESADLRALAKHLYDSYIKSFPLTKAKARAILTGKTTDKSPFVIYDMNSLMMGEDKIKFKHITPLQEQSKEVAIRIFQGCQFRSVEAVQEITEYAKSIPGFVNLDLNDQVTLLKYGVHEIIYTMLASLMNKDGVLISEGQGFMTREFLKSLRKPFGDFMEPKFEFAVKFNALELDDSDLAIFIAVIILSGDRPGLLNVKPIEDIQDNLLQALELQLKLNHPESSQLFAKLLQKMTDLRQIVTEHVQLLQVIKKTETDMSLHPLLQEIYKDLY
Description: This is an example of a transactivation assay for determining PPAR gamma modulating activity.
The UASx-4-TK-luc reporter construct (where UAS refers to “upstream activator sequence”) contains four Gal4-responsive elements. The plasmid Gal4-PPARgammaLBD encodes a Gal4-DBD-PPARgamma-LBD fusion protein (i.e. the DNA-binding domain, DBD, of Gal4 fused to the ligand-binding domain, LBD, of PPARgamma) capable of transactivating the UASx-4-TK-luc reporter plasmid by binding to the UAS. The CMV-beta-galactosidase plasmid (where CMV is cytomegalovirus) is used for normalization of experimental values.
The cells were replated, typically in 24 well plates, so that at the time of transfection the cells are 50-70% confluent.
Briefly, per well in a 24 well plate, UASx4TKIuc (0.2 μg) Gal4-PPARgammaLBD (or pM-hPPARgamma-LBD; 0.1 μg) and CMV-beta-galactosidase (0.05 μg) in 30 μL DMEM (free of serum and antibiotics) is mixed with 30 μL DMEM (free of serum and antibiotics) containing 1 μL metafectenein. The mixture is incubated at room temperature for 20 min to allow formation of nucleic acid-lipid complexes and then approximately 60 μL is added to each well containing the 50-60% confluent cells. […] Cells were harvested after 12-24 hours and luciferase and beta-galactosidase activities were measured according to standard protocols.
“−” means that testing was not performed.

[3] = Aspirin 200 mg/kg i.v., n = 7, mean ± SEM
[4] = Clopidogrel 20 mg/kg oral gavage, n = 6, mean ± SEM

## O=C([O-])CC/C=C\C[C@@H]1CO[C@H](c2ccccc2Cl)O[C@@H]1c1ccccc1O.[K+] [(Z)-6-((2S,4S,5R)-2-(2-chlorophenyl)-4-(2-hydroxyphenyl)-1,3-dioxan-5-yl(hex-4-enoic potassium]
[1]; 100 mg/kg in saline i.v.
  blood flow, time window 0-10 min: significantly higher blood flow as compared to either saline alone (p=0.009) or to aspirin (p=0.0006)
  occlusion time: prolonged the occlusion time
  total blood flow: significantly improved total blood flow as compared to either saline (p=0.0032) or aspirin (p=0.0021)

## CC(=O)Oc1ccccc1C(=O)O [Aspirin, reference compound]
[2]; [3]
  Hematocrit: 72 ± 0.60%
  Hemoglobin: 15 ± 0.19 g/dL
  Lymphocytes: 60 ± 11%
  Neutrophils: 39 ± 11%
  Platelets: 1020 ± 59 ×10^3/μl
  Red blood cells: 9.3 ± 0.10 ×10^6/μl
  White blood cells: 1.4 ± 0.42 ×10^3/μl
[1]; 200 mg/kg i.v. in the tail vein
  occlusion time: no effect
[1]; 200 mg/kg i.v., versus vehicle
  total blood flow: no significant effect

## COC(=O)[C@H](c1ccccc1Cl)N1CCc2sccc2C1 [Clopidogrel, reference compound]
[2]; [4]
  Hematocrit: 72 ± 2.7%
  Hemoglobin: 15 ± 0.60 g/dL
  Lymphocytes: 47 ± 7.8%
  Neutrophils: 50 ± 7.2%
  Platelets: 1060 ± 106 ×10^3/μl
  Red blood cells: 9.0 ± 0.36 ×10^6/μl
  White blood cells: 0.62 ± 0.22 ×10^3/μl
[1]; 20 mg/kg oral gavage 6-7 hours prior to the experiment, 30 min observation
  occlusion: totally prevents occlusion within 30 min in 6/7 experiments
[1]; 20 mg/kg oral gavage, versus vehicle
  total blood flow: significantly improved total blood flow

## COc1ccccc1[C@@H]1O[C@H](c2ccccc2Cl)OC[C@@H]1C/C=C\CCC(=O)O [Compound 4, (Z)-6-((2R,4R,5S)-2-(2-chlorophenyl)-4-(2-methoxyphenyl)-1,3-dioxan-5-yl)hex-4-enoic acid]
MEFs / 3T3-L1
  Adip. (adipocyte differentiation): 0

## COc1ccccc1[C@H]1O[C@@H](c2ccccc2Cl)OC[C@H]1C/C=C\CCC(=O)O [Compound 5, (Z)-6-((2S,4S,5R)-2-(2-chlorophenyl)-4-(2-methoxyphenyl)-1,3-dioxan-5-yl)hex-4-enoic acid]
MEFs / 3T3-L1
  Adip. (adipocyte differentiation): 0

## O=C(O)CC/C=C\C[C@@H]1CO[C@H](c2ccccc2Cl)O[C@@H]1c1ccccc1O [compound 1]
MEFs / 3T3-L1
  Adip. (adipocyte differentiation): 0

## O=C(O)CC/C=C\C[C@@H]1COC(c2cccc(Cl)c2Cl)O[C@@H]1c1ccccc1O (stereo partly drawn) [compound 2]
MEFs / 3T3-L1
  Adip. (adipocyte differentiation): 0

## O=C(O)CC/C=C\C[C@@H]1COC2(CCCCC2)O[C@@H]1c1ccccc1O [compound 6]
MEFs / 3T3-L1
  Adip. (adipocyte differentiation): 0

## COc1ccc(Oc2ccccc2C2OC[C@@H](C/C=C\CCC(=O)O)[C@@H](c3ccccc3O)O2)cc1 (stereo partly drawn) [compound 7]
MEFs / 3T3-L1
  adipocyte differentiation (summary in words): low or no adipocyte differentiation
  Adip. (adipocyte differentiation): 0
Gal4-PPARgammaLBD
  PPARgamma activity (summary in words): higher potency

## O=C(O)CC/C=C\C[C@@H]1COC2(CCNCC2)O[C@@H]1c1ccccc1O [compound 8]
MEFs / 3T3-L1
  Adip. (adipocyte differentiation): −1
Gal4-PPARgammaLBD
  PPAR (PPARgamma activating activity): Boc de- rivative Inactive

## O=C(O)CC/C=C\C[C@@H]1COC(c2cccc3ccccc23)O[C@@H]1c1ccccc1O (stereo partly drawn) [compound 9]
MEFs / 3T3-L1
  Adip. (adipocyte differentiation): 0

## O=C(O)CC/C=C\C[C@@H]1COC(c2ccccc2-c2ccccc2)O[C@@H]1c1ccccc1O (stereo partly drawn) [compound 10]
MEFs / 3T3-L1
  Adip. (adipocyte differentiation): 0
Gal4-PPARgammaLBD
  PPARgamma activity (summary in words): PPARgamma antagonist
  PPAR (PPARgamma activating activity): Antagonist

## CCCCCC1OC[C@@H](C/C=C\CCC(=O)O)[C@@H](c2ccccc2O)O1 (stereo partly drawn) [compound 11]
MEFs / 3T3-L1
  Adip. (adipocyte differentiation): +1

## C/C=C/CC1OC[C@@H](C/C=C\CCC(=O)O)[C@@H](c2ccccc2O)O1 (stereo partly drawn) [compound 12]
MEFs / 3T3-L1
  Adip. (adipocyte differentiation): −1

## O=C(O)CC/C=C\C[C@@H]1COC(c2coc3ccc(Cl)cc3c2=O)O[C@@H]1c1ccccc1O (stereo partly drawn) [compound 13]
MEFs / 3T3-L1
  adipocyte differentiation (summary in words): low or no adipocyte differentiation
  Adip. (adipocyte differentiation): −1
Gal4-PPARgammaLBD
  PPARgamma activity (summary in words): higher potency

## COc1ccccc1[C@H]1OC[C@@H](C/C=C\CCC(=O)O)[C@@H](c2ccccc2O)O1 [compound 18]
MEFs / 3T3-L1
  Adip. (adipocyte differentiation): −1

## COc1cccc([C@H]2OC[C@@H](C/C=C\CCC(=O)O)[C@@H](c3ccccc3O)O2)c1OC [compound 19]
MEFs / 3T3-L1
  Adip. (adipocyte differentiation): 0

## CC(C)[C@H]1OC[C@@H](C/C=C\CCC(=O)O)[C@@H](c2ccccc2O)O1 [compound 20]
MEFs / 3T3-L1
  Adip. (adipocyte differentiation): 0

## O=C(O)CC/C=C\C[C@@H]1CO[C@H](C2CCCCC2)O[C@@H]1c1ccccc1O [compound 21]
MEFs / 3T3-L1
  Adip. (adipocyte differentiation): 0

## O=C(O)CCC/C=C\C[C@@H]1CO[C@H](c2ccccc2Cl)O[C@@H]1c1ccccc1O [compound 23]
MEFs / 3T3-L1
  Adip. (adipocyte differentiation): +1

## COc1ccccc1[C@H]1OC(c2ccccc2Cl)OC[C@H]1C/C=C\CCC(=O)O (stereo partly drawn) [compound 27]
Gal4-PPARgammaLBD
  PPAR (PPARgamma activating activity): Inactive

## COc1ccccc1[C@H]1O[C@@H](c2c(Cl)cccc2Cl)OC[C@H]1C/C=C\CCC(=O)O [compound 28]
Gal4-PPARgammaLBD
  PPAR (PPARgamma activating activity): Inactive

## O=C(O)CCCCCCC[C@@H]1CO[C@H](c2ccccc2Cl)O[C@@H]1c1ccccc1O [compound 31]
MEFs / 3T3-L1
  Adip. (adipocyte differentiation): 0

## CC1(C)OC[C@@H](C/C=C\CCCCC(=O)O)[C@@H](c2ccccc2O)O1 [compound 36]
Gal4-PPARgammaLBD
  PPAR (PPARgamma activating activity): Inactive

## COc1ccccc1[C@H]1OC(C)(C)OC[C@H]1C/C=C\CCCCC(=O)O [compound 37]
MEFs / 3T3-L1
  Adip. (adipocyte differentiation): 0
Gal4-PPARgammaLBD
  PPAR (PPARgamma activating activity): Inactive
